Results published in patent US6677333B1, “2H-phthalazin-1-one derivatives and drug containing its derivatives as active ingredient” (Ono Pharmaceutical Co., Ltd., priority 1999, dated 2004).
pIC50: −log10 of the molar value. Where a name gives a salt, the structure may show the parent alone.

Target: T1, PARP (Homo sapiens, UniProt P09874)
T1 construct: purchased TREVIGEN
Assay: Enzyme assay in vitro (PARP inhibitory activity)
Assay type: biochemical
Settings: PARP (TREVIGEN), activated DNA, 10 minutes reaction, 100% of control = distilled water; example 5 tested as trifluoro acetate
Protocol: The below procedure was carried out with 96 well plate. The reaction mixture contained 50 mM Tris/HCl (pH 8.0, WAKO), 10 mM MgCl2, 5 mM dithiothreitol (sigma), and 0.5 mg/mL activated DNA in 80 μL. The 10 μL of test compound was added to the reaction mixture and the reaction was started by addition of 10 μL of […] PARP (TREVIGEN). The reaction was terminated at 10 minutes by addition of 100 μL of 20% trichloroacetic acid. The reaction product was collected on a glass fiber filter (GF/C, PACKARD). The radioactivity was measured by topcount (PACKARD). Inhibitory activity of the compound was represented by 50% inhibitory concentration (IC50) calculated 100% of control (distilled water).

T1 sequence (P09874 whole entry): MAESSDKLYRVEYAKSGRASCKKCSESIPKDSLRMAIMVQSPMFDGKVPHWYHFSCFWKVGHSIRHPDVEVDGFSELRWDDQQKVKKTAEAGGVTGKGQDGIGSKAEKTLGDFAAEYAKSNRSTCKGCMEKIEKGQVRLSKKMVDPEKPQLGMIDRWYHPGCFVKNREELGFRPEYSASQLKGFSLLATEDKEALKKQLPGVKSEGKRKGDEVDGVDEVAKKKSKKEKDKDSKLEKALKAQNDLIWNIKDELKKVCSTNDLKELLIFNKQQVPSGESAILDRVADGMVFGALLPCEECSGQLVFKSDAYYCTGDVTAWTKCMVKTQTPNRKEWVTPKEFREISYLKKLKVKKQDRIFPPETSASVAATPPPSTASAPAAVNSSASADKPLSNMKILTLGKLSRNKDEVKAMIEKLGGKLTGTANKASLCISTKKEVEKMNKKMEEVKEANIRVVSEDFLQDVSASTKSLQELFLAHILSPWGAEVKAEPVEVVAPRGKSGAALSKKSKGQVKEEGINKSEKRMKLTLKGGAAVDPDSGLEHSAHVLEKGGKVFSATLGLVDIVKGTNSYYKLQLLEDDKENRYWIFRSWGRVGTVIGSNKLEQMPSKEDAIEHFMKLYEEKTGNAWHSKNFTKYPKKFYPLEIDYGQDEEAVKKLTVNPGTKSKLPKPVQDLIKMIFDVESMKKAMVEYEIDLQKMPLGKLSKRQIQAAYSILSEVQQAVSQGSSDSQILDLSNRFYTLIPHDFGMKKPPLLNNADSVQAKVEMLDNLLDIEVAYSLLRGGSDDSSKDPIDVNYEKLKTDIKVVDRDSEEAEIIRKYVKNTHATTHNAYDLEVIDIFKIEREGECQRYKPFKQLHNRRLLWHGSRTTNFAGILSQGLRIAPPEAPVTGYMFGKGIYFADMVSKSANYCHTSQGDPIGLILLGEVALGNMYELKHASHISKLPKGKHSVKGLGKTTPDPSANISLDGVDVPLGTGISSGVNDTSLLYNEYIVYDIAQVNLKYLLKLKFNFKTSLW

Row | pIC50 | Structure (SMILES)
1 | 7.30 | NCCSCC(=O)Nc1cccc(-c2n[nH]c(=O)c3ccccc23)c1 [5(10), 4-(3-(2-(2-Aminoethylthio)acetylamino)phenyl)-2H-phthalazin-1-one Hydrochloride]
2 | 7.38 | NCCCCC(=O)Nc1cccc(-c2n[nH]c(=O)c3ccccc23)c1 [compound 5]
